How the values were obtained:
Porphyromonas gingivalis [1] = test: Determination of minimal inhibitory concentration (MIC), broth microplate, absorbance at 600 nm; format: cell-based; conditions: BCRC14417, P. gingivalis BCRC 14417, 24 hours anaerobic, 37° C., concentration at absorbance ≦0.5 at 600 nm
Procedure: Porphyromonas gingivalis was purchased from Food Industry Research and Development Institute ([…], Taiwan) with the accession number BCRC 14417. After thawing from frozen tube, Porphyromonas gingivalis was activated in the supplemented brain heart infusion broth, and cultured at 37° C. anaerobic condition (80% N2, 10% H2, 10% CO2) for 24 hours to 48 hours. […] Chlorhexidine was used as positive control. The 2.5% (v/v) dimethyl sulfoxide was used as normal control.

Porphyromonas gingivalis [2] = test: Determination of minimal bactericidal concentration (MBC), plating on sBHI agar with 5% defibrinated sheep blood; format: cell-based
Procedure: Porphyromonas gingivalis was purchased from Food Industry Research and Development Institute ([…], Taiwan) with the accession number BCRC 14417. After thawing from frozen tube, Porphyromonas gingivalis was activated in the supplemented brain heart infusion broth, and cultured at 37° C. anaerobic condition (80% N2, 10% H2, 10% CO2) for 24 hours to 48 hours. […] Chlorhexidine was used as positive control. […]. After Porphyromonas gingivalis with said solution of Antrodia camphorata 95% ethanol extract or chlorhexidine were cultured at 37° C. under anaerobic condition (80% N2, 10% H2, 10% CO2) for 48 hours, 10 μl aliquot […] was added to supplemented brain heart infusion agar with 5% defibrinated sheep blood. Then, broth was gently coated uniformly onto supplemented brain heart infusion agar with 5% defibrinated sheep blood by a triangular sterilized glass rod and cultured at 37° C. anaerobic condition (80% N2, 10% H2, 10% CO2) for 5 days. […] ([…] Castro et al., 2009, Bioorganic & Medicinal Chemistry, 17:5332-5335)

MIC (Porphyromonas gingivalis [1]): 4 µg/mL
SMILES: [H]/N=C(\N/C(=N/[H])NCCCCCCNC(=N)NC(=N)Nc1ccc(Cl)cc1)Nc1ccc(Cl)cc1 [Chlorhexidine, Chlorhexidine digluconate]
MBC (Porphyromonas gingivalis [2]; Porphyromonas gingivalis, BCRC14417): 4 µg/mL
colony growth on supplemented brain heart infusion agar with 5% defibrinated sheep blood (Porphyromonas gingivalis [2]; concentration above 4 μg/ml, FIG. 3): no colony growing
